Literature values as cited in publication PMC9851200, “Multiparameter phenotypic screening for endogenous TFEB and TFE3 translocation identifies novel chemical series modulating lysosome function” (Autophagy, 2022).

Key:
Design in all cases: method as in original PKIS2 published data
[1] = molecular target: T1, kinases (KINOMEscan panel) (Homo sapiens, UniProt P52333); settings: kinase JAK3(JH1domain-catalytic); Published KINOMEscan; ref original PKIS2 published data; cited from earlier work
T1 sequence (P52333 1-1124): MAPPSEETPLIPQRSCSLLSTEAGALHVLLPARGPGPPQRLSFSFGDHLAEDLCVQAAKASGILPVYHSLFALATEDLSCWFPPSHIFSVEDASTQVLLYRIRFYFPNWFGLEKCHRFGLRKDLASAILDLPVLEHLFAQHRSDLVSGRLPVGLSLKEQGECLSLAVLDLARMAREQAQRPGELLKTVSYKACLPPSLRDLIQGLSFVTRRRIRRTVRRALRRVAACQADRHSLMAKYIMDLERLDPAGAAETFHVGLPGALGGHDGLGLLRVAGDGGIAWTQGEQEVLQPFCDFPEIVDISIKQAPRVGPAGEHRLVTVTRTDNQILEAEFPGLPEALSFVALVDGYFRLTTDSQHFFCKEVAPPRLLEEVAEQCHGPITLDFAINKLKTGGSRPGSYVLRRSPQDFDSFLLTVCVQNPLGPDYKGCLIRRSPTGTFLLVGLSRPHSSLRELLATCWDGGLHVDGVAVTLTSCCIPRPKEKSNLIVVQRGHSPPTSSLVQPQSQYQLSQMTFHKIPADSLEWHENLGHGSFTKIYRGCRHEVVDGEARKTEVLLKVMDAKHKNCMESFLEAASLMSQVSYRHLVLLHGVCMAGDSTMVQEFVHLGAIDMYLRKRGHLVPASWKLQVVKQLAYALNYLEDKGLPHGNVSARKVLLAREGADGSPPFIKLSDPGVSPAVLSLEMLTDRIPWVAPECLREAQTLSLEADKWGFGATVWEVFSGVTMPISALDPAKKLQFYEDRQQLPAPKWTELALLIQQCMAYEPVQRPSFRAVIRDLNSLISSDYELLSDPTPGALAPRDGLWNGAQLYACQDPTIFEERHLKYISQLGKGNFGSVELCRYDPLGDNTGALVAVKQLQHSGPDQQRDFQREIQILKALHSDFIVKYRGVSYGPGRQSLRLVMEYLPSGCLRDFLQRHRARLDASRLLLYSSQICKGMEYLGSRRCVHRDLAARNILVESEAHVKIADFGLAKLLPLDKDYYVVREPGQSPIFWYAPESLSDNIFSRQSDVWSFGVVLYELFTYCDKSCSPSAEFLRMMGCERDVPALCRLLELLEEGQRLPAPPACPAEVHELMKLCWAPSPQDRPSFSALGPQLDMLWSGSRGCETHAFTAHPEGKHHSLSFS

[2] = molecular target: kinases (KINOMEscan panel) (Homo sapiens, UniProt Q00537); settings: kinase CDK17; Published KINOMEscan; ref original PKIS2 published data; cited from earlier work
[3] = molecular target: T2, kinases (KINOMEscan panel) (Homo sapiens, UniProt P51813); settings: BMX; Published KINOMEscan; ref original PKIS2 published data; cited from earlier work
T2 sequence (P51813 1-675): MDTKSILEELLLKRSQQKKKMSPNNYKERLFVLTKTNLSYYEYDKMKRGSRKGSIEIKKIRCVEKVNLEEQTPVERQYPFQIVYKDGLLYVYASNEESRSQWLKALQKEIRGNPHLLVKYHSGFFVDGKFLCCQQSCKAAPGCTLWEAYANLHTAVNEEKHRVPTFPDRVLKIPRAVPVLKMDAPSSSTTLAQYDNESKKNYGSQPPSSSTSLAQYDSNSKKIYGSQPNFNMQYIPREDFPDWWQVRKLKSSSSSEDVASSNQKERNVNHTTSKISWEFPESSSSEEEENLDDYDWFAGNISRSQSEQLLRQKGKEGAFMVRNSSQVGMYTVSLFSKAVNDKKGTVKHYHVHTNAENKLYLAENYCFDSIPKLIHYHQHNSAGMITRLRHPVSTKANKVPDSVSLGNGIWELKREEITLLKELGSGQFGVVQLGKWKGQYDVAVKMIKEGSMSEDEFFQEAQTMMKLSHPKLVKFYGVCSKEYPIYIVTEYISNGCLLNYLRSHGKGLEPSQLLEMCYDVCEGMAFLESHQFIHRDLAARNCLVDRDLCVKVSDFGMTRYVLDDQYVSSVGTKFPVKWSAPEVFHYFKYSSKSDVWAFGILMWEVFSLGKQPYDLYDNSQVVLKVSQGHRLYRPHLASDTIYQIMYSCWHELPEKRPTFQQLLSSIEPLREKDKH

[4] = molecular target: kinases (KINOMEscan panel) (Homo sapiens, UniProt Q8TDX7); settings: NEK7; Published KINOMEscan; ref original PKIS2 published data; cited from earlier work
[5] = molecular target: kinases (KINOMEscan panel) (Homo sapiens, UniProt P42684); settings: ABL2; Published KINOMEscan; ref original PKIS2 published data; cited from earlier work
[6] = molecular target: kinases (KINOMEscan panel) (Homo sapiens, UniProt Q96J92); settings: WNK4; Published KINOMEscan; ref original PKIS2 published data; cited from earlier work
[7] = molecular target: kinases (KINOMEscan panel) (Homo sapiens, UniProt P04049); settings: RAF1; Published KINOMEscan; ref original PKIS2 published data; cited from earlier work
[8] = molecular target: kinases (KINOMEscan panel) (Homo sapiens, UniProt P09619); settings: Published KINOMEscan; ref original PKIS2 published data; cited from earlier work
[9] = molecular target: kinases (KINOMEscan panel) (Homo sapiens, UniProt Q9Y3S1); settings: WNK2; Published KINOMEscan; ref original PKIS2 published data; cited from earlier work
[10] = molecular target: kinases (KINOMEscan panel) (Homo sapiens, UniProt P78362); settings: SRPK2; Published KINOMEscan; ref original PKIS2 published data; cited from earlier work
[11] = molecular target: kinases (KINOMEscan panel) (Homo sapiens, UniProt Q9NQU5); settings: PAK6; Published KINOMEscan; ref original PKIS2 published data; cited from earlier work

Sequence of kinases (KINOMEscan panel) (Homo sapiens, UniProt Q9Y3S1) (Q9Y3S1 whole entry): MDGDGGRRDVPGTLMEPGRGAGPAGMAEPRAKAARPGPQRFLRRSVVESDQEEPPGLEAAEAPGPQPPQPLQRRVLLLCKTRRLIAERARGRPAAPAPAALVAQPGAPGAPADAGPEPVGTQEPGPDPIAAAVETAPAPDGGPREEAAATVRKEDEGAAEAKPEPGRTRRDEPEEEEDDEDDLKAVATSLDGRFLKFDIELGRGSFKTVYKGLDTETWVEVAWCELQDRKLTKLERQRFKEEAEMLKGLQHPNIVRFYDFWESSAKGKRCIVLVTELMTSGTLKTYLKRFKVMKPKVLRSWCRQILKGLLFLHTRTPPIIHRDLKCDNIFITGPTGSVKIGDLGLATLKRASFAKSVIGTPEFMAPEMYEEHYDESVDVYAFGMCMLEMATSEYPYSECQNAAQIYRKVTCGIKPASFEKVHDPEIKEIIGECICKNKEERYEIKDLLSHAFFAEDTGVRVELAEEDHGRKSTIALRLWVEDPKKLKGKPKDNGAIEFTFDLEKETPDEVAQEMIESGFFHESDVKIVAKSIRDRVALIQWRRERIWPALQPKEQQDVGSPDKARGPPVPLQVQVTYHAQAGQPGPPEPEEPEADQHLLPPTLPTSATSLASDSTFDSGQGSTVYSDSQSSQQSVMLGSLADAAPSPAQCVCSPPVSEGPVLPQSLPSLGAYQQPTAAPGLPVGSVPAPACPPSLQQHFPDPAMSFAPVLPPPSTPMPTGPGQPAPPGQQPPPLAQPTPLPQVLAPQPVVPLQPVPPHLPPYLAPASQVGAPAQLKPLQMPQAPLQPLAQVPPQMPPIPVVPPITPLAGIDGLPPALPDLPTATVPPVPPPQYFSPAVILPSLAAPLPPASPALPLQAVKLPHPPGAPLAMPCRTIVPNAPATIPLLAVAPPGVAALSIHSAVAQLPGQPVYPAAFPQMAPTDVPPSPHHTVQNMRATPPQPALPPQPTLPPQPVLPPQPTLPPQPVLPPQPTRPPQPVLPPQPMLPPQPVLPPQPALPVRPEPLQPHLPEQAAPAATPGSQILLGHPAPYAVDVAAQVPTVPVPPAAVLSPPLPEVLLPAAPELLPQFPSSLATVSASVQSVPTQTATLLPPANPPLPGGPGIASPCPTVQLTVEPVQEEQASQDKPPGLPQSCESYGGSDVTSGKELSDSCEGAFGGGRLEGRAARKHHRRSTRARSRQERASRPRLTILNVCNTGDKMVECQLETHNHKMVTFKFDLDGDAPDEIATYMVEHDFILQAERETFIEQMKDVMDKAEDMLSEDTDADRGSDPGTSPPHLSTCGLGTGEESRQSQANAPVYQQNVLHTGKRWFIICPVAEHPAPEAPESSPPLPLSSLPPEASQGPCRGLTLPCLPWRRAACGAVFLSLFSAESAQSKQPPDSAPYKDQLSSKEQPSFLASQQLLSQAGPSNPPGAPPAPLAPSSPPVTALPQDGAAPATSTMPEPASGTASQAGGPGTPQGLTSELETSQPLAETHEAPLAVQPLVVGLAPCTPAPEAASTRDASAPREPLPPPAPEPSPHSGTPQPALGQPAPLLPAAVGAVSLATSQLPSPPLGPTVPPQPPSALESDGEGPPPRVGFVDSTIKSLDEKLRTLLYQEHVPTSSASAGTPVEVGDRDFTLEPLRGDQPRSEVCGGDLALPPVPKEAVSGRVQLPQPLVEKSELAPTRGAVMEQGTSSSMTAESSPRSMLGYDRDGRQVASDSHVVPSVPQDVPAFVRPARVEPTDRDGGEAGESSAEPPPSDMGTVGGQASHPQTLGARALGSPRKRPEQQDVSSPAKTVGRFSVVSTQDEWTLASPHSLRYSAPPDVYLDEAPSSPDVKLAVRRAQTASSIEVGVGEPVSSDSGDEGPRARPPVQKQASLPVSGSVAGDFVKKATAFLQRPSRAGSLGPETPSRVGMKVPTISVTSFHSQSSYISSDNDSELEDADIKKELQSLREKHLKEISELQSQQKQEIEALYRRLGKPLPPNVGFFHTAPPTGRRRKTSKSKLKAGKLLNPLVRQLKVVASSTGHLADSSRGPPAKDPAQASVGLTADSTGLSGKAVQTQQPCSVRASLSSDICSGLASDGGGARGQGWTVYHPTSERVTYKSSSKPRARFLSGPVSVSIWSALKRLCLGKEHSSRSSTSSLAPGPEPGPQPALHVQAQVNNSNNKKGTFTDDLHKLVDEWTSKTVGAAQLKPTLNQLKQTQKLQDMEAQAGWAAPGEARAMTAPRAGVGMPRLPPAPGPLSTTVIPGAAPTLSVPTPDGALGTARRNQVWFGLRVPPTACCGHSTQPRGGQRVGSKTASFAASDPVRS
Sequence of kinases (KINOMEscan panel) (Homo sapiens, UniProt P42684) (P42684 whole entry): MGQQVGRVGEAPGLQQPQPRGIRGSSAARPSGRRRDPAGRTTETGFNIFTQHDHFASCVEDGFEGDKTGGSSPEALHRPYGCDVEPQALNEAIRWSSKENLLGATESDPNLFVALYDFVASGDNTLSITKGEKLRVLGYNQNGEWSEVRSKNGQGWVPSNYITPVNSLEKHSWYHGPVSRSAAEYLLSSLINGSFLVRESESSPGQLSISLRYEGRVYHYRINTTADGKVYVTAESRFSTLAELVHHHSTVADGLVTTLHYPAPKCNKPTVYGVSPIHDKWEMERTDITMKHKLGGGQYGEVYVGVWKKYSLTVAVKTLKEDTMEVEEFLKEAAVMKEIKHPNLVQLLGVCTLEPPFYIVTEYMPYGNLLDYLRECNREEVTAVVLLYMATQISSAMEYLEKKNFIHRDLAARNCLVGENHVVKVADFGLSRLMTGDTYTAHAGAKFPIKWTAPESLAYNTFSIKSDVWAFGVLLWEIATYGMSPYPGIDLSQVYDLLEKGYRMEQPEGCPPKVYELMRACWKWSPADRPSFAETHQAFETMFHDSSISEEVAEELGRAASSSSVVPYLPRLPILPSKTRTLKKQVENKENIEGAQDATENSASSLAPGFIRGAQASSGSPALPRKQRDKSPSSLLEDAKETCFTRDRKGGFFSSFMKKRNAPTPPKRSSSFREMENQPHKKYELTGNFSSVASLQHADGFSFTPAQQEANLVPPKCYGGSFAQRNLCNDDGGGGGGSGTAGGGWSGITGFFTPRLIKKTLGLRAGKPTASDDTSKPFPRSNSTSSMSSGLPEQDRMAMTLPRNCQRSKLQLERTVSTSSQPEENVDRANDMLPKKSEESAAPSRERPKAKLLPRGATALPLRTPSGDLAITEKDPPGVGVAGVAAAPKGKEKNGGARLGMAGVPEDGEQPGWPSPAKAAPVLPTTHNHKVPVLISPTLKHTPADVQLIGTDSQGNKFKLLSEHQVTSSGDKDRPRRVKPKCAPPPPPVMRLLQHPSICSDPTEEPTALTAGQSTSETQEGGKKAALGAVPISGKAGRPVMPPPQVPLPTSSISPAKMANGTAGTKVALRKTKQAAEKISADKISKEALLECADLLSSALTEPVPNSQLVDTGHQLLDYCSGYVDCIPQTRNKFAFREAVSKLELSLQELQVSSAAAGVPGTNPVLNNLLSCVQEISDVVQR
Sequence of kinases (KINOMEscan panel) (Homo sapiens, UniProt Q8TDX7) (Q8TDX7 whole entry): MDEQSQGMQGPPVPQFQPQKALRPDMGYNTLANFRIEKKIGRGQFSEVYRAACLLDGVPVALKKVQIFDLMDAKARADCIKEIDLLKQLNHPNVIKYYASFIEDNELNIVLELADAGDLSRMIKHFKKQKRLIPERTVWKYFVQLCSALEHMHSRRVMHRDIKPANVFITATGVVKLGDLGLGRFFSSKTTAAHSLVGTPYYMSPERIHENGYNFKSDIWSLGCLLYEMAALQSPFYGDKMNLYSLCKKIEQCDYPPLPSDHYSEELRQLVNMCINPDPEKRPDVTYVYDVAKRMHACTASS
Sequence of kinases (KINOMEscan panel) (Homo sapiens, UniProt Q00537) (Q00537 whole entry): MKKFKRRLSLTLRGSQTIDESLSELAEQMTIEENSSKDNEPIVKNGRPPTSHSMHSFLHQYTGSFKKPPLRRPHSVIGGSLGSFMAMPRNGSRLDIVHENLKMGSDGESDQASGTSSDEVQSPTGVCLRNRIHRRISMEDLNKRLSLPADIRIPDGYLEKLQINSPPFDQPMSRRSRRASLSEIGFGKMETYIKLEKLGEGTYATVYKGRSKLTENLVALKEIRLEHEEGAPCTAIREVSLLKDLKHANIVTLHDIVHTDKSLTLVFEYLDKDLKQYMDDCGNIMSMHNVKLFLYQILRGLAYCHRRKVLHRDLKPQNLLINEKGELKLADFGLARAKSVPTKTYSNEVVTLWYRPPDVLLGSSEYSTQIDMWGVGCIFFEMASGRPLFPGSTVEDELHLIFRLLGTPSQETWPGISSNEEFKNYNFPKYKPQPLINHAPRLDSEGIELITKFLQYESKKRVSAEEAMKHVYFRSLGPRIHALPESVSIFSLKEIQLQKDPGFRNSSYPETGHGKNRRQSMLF
Sequence of kinases (KINOMEscan panel) (Homo sapiens, UniProt P04049) (P04049 whole entry): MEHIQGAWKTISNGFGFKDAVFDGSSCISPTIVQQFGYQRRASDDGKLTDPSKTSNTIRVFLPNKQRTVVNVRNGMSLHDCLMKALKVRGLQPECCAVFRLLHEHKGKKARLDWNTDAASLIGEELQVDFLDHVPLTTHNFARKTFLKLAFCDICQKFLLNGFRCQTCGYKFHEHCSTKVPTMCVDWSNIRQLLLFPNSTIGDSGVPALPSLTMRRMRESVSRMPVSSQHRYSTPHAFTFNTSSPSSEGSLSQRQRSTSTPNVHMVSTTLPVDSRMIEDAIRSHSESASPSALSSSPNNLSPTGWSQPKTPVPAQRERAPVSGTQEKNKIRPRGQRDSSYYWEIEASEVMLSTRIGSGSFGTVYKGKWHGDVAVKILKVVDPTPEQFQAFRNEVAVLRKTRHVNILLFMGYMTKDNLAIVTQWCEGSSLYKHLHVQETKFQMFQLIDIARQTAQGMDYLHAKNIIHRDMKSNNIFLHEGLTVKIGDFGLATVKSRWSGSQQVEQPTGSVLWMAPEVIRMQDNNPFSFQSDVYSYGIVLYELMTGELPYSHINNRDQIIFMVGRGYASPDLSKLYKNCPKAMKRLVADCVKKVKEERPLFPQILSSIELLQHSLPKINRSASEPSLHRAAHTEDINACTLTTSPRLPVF

For `Cc1cccc(-c2nc(Nc3ccncc3)c3ccccc3n2)n1` [NK215], the “KINOMEscan JAK3(JH1domain-catalytic)” value [1] is listed as 0, the “KINOMEscan CDK17” value [2] is listed as 10 and the “KINOMEscan BMX” value [3] is listed as 6. For the same molecule, the “KINOMEscan NEK7” value [4] was 0, the “KINOMEscan ABL2” value [5] was 22 and the “KINOMEscan WNK4” value [6] was 0. The “KINOMEscan RAF1” value [7] was 39, the “KINOMEscan PDGFRB” value [8] was 3 and the “KINOMEscan WNK2” value [9] was 0. For the same molecule, the “KINOMEscan SRPK2” value [10] was 54 and the “KINOMEscan PAK6” value [11] was 3.
